This passage reports relative viability results from the supplement of paper PMC10307832.

One test relates to HCC-827. Nature of the test: relative viability (nuclei count vs DMSO), 5 days (fraction); higher = more cells survive. The note with it: first compound 20 µM. The method in brief: (§1)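 A single step with final 0.05% Triton X-100, 1% formaldehyde and 1 ug/ml Hoechst fixed the cells and stained nuclei 5 days after treatment. Lung cancer cell lines in 1536-well plates had been treated by pin tool the day after seeding with one drug alone or a fixed anchor-drug dose plus five library-drug doses (not always all listed) in √10 steps, and nuclei were counted on 4× images. Relative viability is the ratio of nuclei in treated wells to nuclei in vehicle wells, taken as the median of duplicate plates.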
Consider `COCC1(CO)C(=O)C2CCN1CC2` (stereo not given) [PRIMA-1MET] + Nc1nc2[nH]cc(CCc3ccc(C(=O)N[C@@H](CCC(=O)O)C(=O)O)cc3)c2c(=O)[nH]1 [Pemetrexed] (partner 0.2 µM), for which the relative viability stood at 0.275.

Molecule `COCC1(CO)C(=O)C2CCN1CC2` (stereo not given) [PRIMA-1MET] + CC(=O)Nc1cccc(-n2c(=O)n(C3CC3)c(=O)c3c(Nc4ccc(I)cc4F)n(C)c(=O)c(C)c32)c1 [Trametinib] (partner 0.02 µM) displayed a relative viability of 0.481.

For `COCC1(CO)C(=O)C2CCN1CC2` (stereo not given) [PRIMA-1MET] + Nc1ncn([C@H]2C[C@H](O)[C@@H](CO)O2)c(=O)n1 [Decitabine] (partner 2 µM), the relative viability was 0.305.

The test system of the next test is ABC-1. Described as above. The note with it: first compound 0.2 µM. The method in brief: as §1
The molecule `COCC1(CO)C(=O)C2CCN1CC2` (stereo not given) [PRIMA-1MET] + COc1cc2c(Oc3ccc(NC(=O)C4(C(=O)Nc5ccc(F)cc5)CC4)cc3F)ccnc2cc1OCCCN1CCOCC1 [Foretinib] (partner 0.25 µM) came in with a relative viability of 1.19.

The molecule `COCC1(CO)C(=O)C2CCN1CC2` (stereo not given) [PRIMA-1MET] + NC(=O)Nc1cc(-c2cccc(F)c2)sc1C(=O)N[C@H]1CCCNC1 [AZD7762] (partner 0.2 µM) returned a relative viability of 0.97.

Molecule `COCC1(CO)C(=O)C2CCN1CC2` (stereo not given) [PRIMA-1MET] + Nc1ncn([C@H]2C[C@H](O)[C@@H](CO)O2)c(=O)n1 [Decitabine] (partner 2 µM) came in with a relative viability of 1.07.

The test is the same for the next values; noted with them: first compound 0.6325 µM.
`COCC1(CO)C(=O)C2CCN1CC2` (stereo not given) [PRIMA-1MET] + COc1cc2c(Oc3ccc(NC(=O)C4(C(=O)Nc5ccc(F)cc5)CC4)cc3F)ccnc2cc1OCCCN1CCOCC1 [Foretinib] (partner 0.25 µM) came in with a relative viability of 0.937.

As to `COCC1(CO)C(=O)C2CCN1CC2` (stereo not given) [PRIMA-1MET] + NC(=O)Nc1cc(-c2cccc(F)c2)sc1C(=O)N[C@H]1CCCNC1 [AZD7762] (partner 0.2 µM), the relative viability was 0.624.

Still in this test, the particulars now being: first compound 2 µM.
For the molecule `COCC1(CO)C(=O)C2CCN1CC2` (stereo not given) [PRIMA-1MET] + COc1cc2c(Oc3ccc(NC(=O)C4(C(=O)Nc5ccc(F)cc5)CC4)cc3F)ccnc2cc1OCCCN1CCOCC1 [Foretinib] (partner 0.25 µM), the relative viability worked out at 1.25.

`COCC1(CO)C(=O)C2CCN1CC2` (stereo not given) [PRIMA-1MET] + NC(=O)Nc1cc(-c2cccc(F)c2)sc1C(=O)N[C@H]1CCCNC1 [AZD7762] (partner 0.2 µM) showed a relative viability of 0.952.

`COCC1(CO)C(=O)C2CCN1CC2` (stereo not given) [PRIMA-1MET] + Nc1ncn([C@H]2C[C@H](O)[C@@H](CO)O2)c(=O)n1 [Decitabine] (partner 2 µM): the relative viability was determined as 0.983.

Still in this test, the particulars now being: first compound 6.325 µM.
With `COCC1(CO)C(=O)C2CCN1CC2` (stereo not given) [PRIMA-1MET] + COc1cc2c(Oc3ccc(NC(=O)C4(C(=O)Nc5ccc(F)cc5)CC4)cc3F)ccnc2cc1OCCCN1CCOCC1 [Foretinib] (partner 0.25 µM), the relative viability is 1.03.

`COCC1(CO)C(=O)C2CCN1CC2` (stereo not given) [PRIMA-1MET] + NC(=O)Nc1cc(-c2cccc(F)c2)sc1C(=O)N[C@H]1CCCNC1 [AZD7762] (partner 0.2 µM) gave a relative viability of 0.775.

For the molecule `COCC1(CO)C(=O)C2CCN1CC2` (stereo not given) [PRIMA-1MET] + Nc1ncn([C@H]2C[C@H](O)[C@@H](CO)O2)c(=O)n1 [Decitabine] (partner 2 µM), the relative viability stood at 1.36.

The same test, now with this note: first compound 20 µM.
In the case of `COCC1(CO)C(=O)C2CCN1CC2` (stereo not given) [PRIMA-1MET] + COc1cc2c(Oc3ccc(NC(=O)C4(C(=O)Nc5ccc(F)cc5)CC4)cc3F)ccnc2cc1OCCCN1CCOCC1 [Foretinib] (partner 0.25 µM), the relative viability was determined as 0.505.

As to `COCC1(CO)C(=O)C2CCN1CC2` (stereo not given) [PRIMA-1MET] + NC(=O)Nc1cc(-c2cccc(F)c2)sc1C(=O)N[C@H]1CCCNC1 [AZD7762] (partner 0.2 µM), the relative viability was 0.376.

`COCC1(CO)C(=O)C2CCN1CC2` (stereo not given) [PRIMA-1MET] + Nc1ncn([C@H]2C[C@H](O)[C@@H](CO)O2)c(=O)n1 [Decitabine] (partner 2 µM) gave a relative viability of 0.552.

The next test relates to NCI-H322M. The description is as above. The note with it: first compound 0.2 µM. The method in brief:
as §1
With `COCC1(CO)C(=O)C2CCN1CC2` (stereo not given) [PRIMA-1MET] + COc1cc2c(Oc3ccc(NC(=O)C4(C(=O)Nc5ccc(F)cc5)CC4)cc3F)ccnc2cc1OCCCN1CCOCC1 [Foretinib] (partner 0.25 µM), the relative viability was 1.14.

The molecule `COCC1(CO)C(=O)C2CCN1CC2` (stereo not given) [PRIMA-1MET] + NC(=O)Nc1cc(-c2cccc(F)c2)sc1C(=O)N[C@H]1CCCNC1 [AZD7762] (partner 0.2 µM) showed a relative viability of 0.657.

As for `COCC1(CO)C(=O)C2CCN1CC2` (stereo not given) [PRIMA-1MET] + Nc1nc2[nH]cc(CCc3ccc(C(=O)N[C@@H](CCC(=O)O)C(=O)O)cc3)c2c(=O)[nH]1 [Pemetrexed] (partner 0.2 µM), the relative viability came to 0.633.

Consider `COCC1(CO)C(=O)C2CCN1CC2` (stereo not given) [PRIMA-1MET] + CC(=O)Nc1cccc(-n2c(=O)n(C3CC3)c(=O)c3c(Nc4ccc(I)cc4F)n(C)c(=O)c(C)c32)c1 [Trametinib] (partner 0.02 µM), for which the relative viability turned out to be 0.484.

As to `COCC1(CO)C(=O)C2CCN1CC2` (stereo not given) [PRIMA-1MET] + Nc1ncn([C@H]2C[C@H](O)[C@@H](CO)O2)c(=O)n1 [Decitabine] (partner 2 µM), the relative viability came out at 0.725.

Still in this test, the particulars now being: first compound 0.6325 µM.
`COCC1(CO)C(=O)C2CCN1CC2` (stereo not given) [PRIMA-1MET] + COc1cc2c(Oc3ccc(NC(=O)C4(C(=O)Nc5ccc(F)cc5)CC4)cc3F)ccnc2cc1OCCCN1CCOCC1 [Foretinib] (partner 0.25 µM) showed a relative viability of 0.911.

For `COCC1(CO)C(=O)C2CCN1CC2` (stereo not given) [PRIMA-1MET] + NC(=O)Nc1cc(-c2cccc(F)c2)sc1C(=O)N[C@H]1CCCNC1 [AZD7762] (partner 0.2 µM), the relative viability was 0.558.

Turning to `COCC1(CO)C(=O)C2CCN1CC2` (stereo not given) [PRIMA-1MET] + Nc1nc2[nH]cc(CCc3ccc(C(=O)N[C@@H](CCC(=O)O)C(=O)O)cc3)c2c(=O)[nH]1 [Pemetrexed] (partner 0.2 µM), the relative viability was found to be 0.562.

Take `COCC1(CO)C(=O)C2CCN1CC2` (stereo not given) [PRIMA-1MET] + CC(=O)Nc1cccc(-n2c(=O)n(C3CC3)c(=O)c3c(Nc4ccc(I)cc4F)n(C)c(=O)c(C)c32)c1 [Trametinib] (partner 0.02 µM): the relative viability worked out at 0.467.

With `COCC1(CO)C(=O)C2CCN1CC2` (stereo not given) [PRIMA-1MET] + Nc1ncn([C@H]2C[C@H](O)[C@@H](CO)O2)c(=O)n1 [Decitabine] (partner 2 µM), the relative viability was determined as 0.696.

Still in this test, the particulars now being: first compound 6.325 µM.
`COCC1(CO)C(=O)C2CCN1CC2` (stereo not given) [PRIMA-1MET] + COc1cc2c(Oc3ccc(NC(=O)C4(C(=O)Nc5ccc(F)cc5)CC4)cc3F)ccnc2cc1OCCCN1CCOCC1 [Foretinib] (partner 0.25 µM) showed a relative viability of 1.18.

Molecule `COCC1(CO)C(=O)C2CCN1CC2` (stereo not given) [PRIMA-1MET] + NC(=O)Nc1cc(-c2cccc(F)c2)sc1C(=O)N[C@H]1CCCNC1 [AZD7762] (partner 0.2 µM) came in with a relative viability of 0.59.

`COCC1(CO)C(=O)C2CCN1CC2` (stereo not given) [PRIMA-1MET] + Nc1nc2[nH]cc(CCc3ccc(C(=O)N[C@@H](CCC(=O)O)C(=O)O)cc3)c2c(=O)[nH]1 [Pemetrexed] (partner 0.2 µM) displayed a relative viability of 0.624.
